Tested on: Detroit 562 cells infected with S. pneumoniae TIGR4
Experiment: Cell-based infection model, bacterial CFU
Set-up: species or system Streptococcus pneumoniae
Conditions: 20 μM CPP-PNA; MOI 5; 3 h at 37°C; n = 3
Description: Detroit 562 human pharyngeal epithelial cells were infected with S. pneumoniae TIGR4 at a multiplicity of infection (MOI) of 5. Cells were treated with 20 μM (RXR)4XB-anti-gyrA PNA or scrambled control PNA, respectively. As a positive control, 1 μg levofloxacin, corresponding to 3× MIC, was added. Following incubation for 3 h at 37°C, bacterial CFU counts were determined for CPP-antisense PNA-treated samples and compared to those in nontreated samples and in samples containing scrambled control PNAs (Fig. 4A). Treatment with (RXR)4XB-anti-gyrA caused a log CFU reduction of 1. Addition of levofloxacin led to a log CFU reduction of 2.
The human pharynx carcinoma epithelial cell line Detroit 562 (ATCC CCL138) was cultivated in Dulbecco’s modified Eagle medium (DMEM)/F12 (1:1) (Thermo Fisher Scientific, Schwerte, Germany) supplemented with 10% fetal bovine serum at 37°C and 5% CO2. Confluent Detroit 562 cells were infected with S. pneumoniae TIGR4 at an MOI of 5. Cultures were treated with 20 μM CPP-PNAs or 1 μg levofloxacin, respectively, and incubated for 3 h at 37°C, 5% CO2. After incubation, the supernatant was collected. Adherent cells were detached with Accutase solution (Merck KGaA, Darmstadt, Germany), collected by centrifugation for 10 min at 4,000 × g, and combined with the supernatant. Cells were pelleted by centrifugation, washed twice with PBS, and suspended in PBS. CFU/well was determined following serial dilution and plating on Todd Hewitt Broth, supplemented with Yeast, (THY) agar plates.

Substance: RXRRXRRXRRXRXB-eg-tgcattaata [(RXR)4XB-anti-gyrA PNA, (RXR)4XB peptide coupled to antisense PNA against gyrA]
- log CFU reduction in infected Detroit 562 cells: 1
